Test results taken from PMC8167934 (Cancer letters, 2021).

Experiments:
[1] = system: TNBC patients; settings: high dose omeprazole added to neoadjuvant TNBC treatment; cited from earlier work
[2] = system: breast cancer patients; assay: Retrospective EMR analysis of overall survival of breast cancer patients; format: in vivo, human
[3] = system: PARP1 expression; assay: Western blot analysis of PARP1 expression; format: cell-based, human; settings: MCF7, T47D, MDA-MB-231 and MDA-MB-468 cells, different concentrations
[4] = system: homologous recombination activity; assay: Host cell reactivation assay of homologous recombination activity; format: cell-based, human; settings: 10 µM twice a day for three days
[5] = system: MDA-MB-468 cells; assay: Colony formation combination with ionizing radiation, MDA-MB-468; format: cell-based, human; settings: pre-treated with 10 µM once a day for 3 days
[6] = system: MDA-MB-468 cells; assay: Flow cytometry of apoptosis and cell cycle, MDA-MB-468; format: cell-based, human
[7] = system: NHEJ activity in MCF7 cells; assay: Host cell reactivation assay of NHEJ activity, MCF7; format: cell-based, human
[8] = system: γ-H2AX in MDA-MB-468 cells; assay: γ-H2AX level; format: cell-based, human
[9] = system: MCF7 cells; assay: Colony formation combination with ionizing radiation, MCF7; format: cell-based, human; settings: pre-treated with 10 µM once a day for 3 days
[10] = system: MCF7 cells; assay: Colony formation combination study with doxorubicin; format: cell-based, human; settings: combination with doxorubicin at potency ratios 50/50, 25/75, 75/25
[11] = system: MCF7 cells; assay: Flow cytometry of apoptosis and cell cycle, MCF7; format: cell-based, human
[12] = system: NHEJ activity in MDA-MB-468 cells; assay: Host cell reactivation assay of NHEJ activity, MDA-MB-468; format: cell-based, human; settings: 10 µM twice a day for three days
[13] = system: M3K/Sh cells; assay: Colony formation assay, MCF7/AdVp3000 cells with FASN knockdown; format: cell-based, human; settings: FASN knockdown vs M3K/Scr
[14] = system: MCF7/FASN cells; assay: Colony formation assay, MCF7 cells with ectopic FASN over-expression; format: cell-based, human; settings: ectopic FASN over-expression vs MCF7/Vec
[15] = system: MDA-MB-468 cells; assay: Colony formation combination study with doxorubicin; format: cell-based, human; settings: combination with doxorubicin at potency ratios 50/50, 25/75, 75/25
[16] = system: γ-H2AX in MCF7 cells; assay: γ-H2AX level; format: cell-based, human
[17] = target: thioesterase (TE) domain of FASN (Homo sapiens, UniProt P49327); assay: TE activity assay with recombinant TE; settings: recombinant TE 500 nM
thioesterase (TE) domain of FASN, sequence (P49327 2207-2511 limits assumed): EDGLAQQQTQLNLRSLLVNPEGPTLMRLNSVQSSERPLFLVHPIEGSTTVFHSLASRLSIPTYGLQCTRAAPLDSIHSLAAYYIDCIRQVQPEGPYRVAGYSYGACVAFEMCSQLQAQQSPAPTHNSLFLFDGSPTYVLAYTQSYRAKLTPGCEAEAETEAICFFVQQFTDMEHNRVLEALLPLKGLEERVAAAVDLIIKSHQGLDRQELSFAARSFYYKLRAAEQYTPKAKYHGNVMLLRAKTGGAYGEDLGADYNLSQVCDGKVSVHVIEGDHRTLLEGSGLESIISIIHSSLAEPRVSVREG

[18] = system: db/+ and db/db mice; settings: chronic use, cited from earlier work
[19] = 10–20 mg users vs non-PPI users
[20] = users of the PPI vs non-PPI users
[21] = esomeprazole users vs omeprazole users, pairwise comparison

Structure (SMILES): COc1ccc2[nH]c([S+]([O-])Cc3ncc(C)c(OC)c3C)nc2c1 (centres unmarked) [omeprazole]
- FASN activities in tumors [1]: inhibited
- Toxicity [1]: without adding toxicity
- pCR rate [1]: ~ 74%
- Overall survival, multivariant HR ([2]; 40 mg users vs non-PPI users): 0.12
- Overall survival, univariant HR ([2]; 40 mg users vs non-PPI users): 0.21
- Overall survival, multivariant HR [2, 19]: 0.28
- Overall survival, univariant HR [2, 19]: 0.33
- Overall survival, univariate HR [2, 20]: 0.33

Structure (SMILES): COc1ccc2nc([S@@+]([O-])Cc3ncc(C)c(OC)c3C)[nH]c2c1 [esomeprazole]
- Overall survival, multivariant HR ([2]; 20 mg users vs non-PPI users): 0.73
- Overall survival, univariant HR ([2]; 20 mg users vs non-PPI users): 1.0
- Overall survival, multivariant HR ([2]; 40 mg users vs non-PPI users): 0.33
- Overall survival, univariant HR ([2]; 40 mg users vs non-PPI users): 0.3
- Overall survival, multivariate HR [2, 21]: 1.64
- Overall survival, univariate HR [2, 21]: 1.62
- Overall survival, univariate HR [2, 20]: 0.52

Structure (SMILES): Cc1c(OCC(F)(F)F)ccnc1C[S+]([O-])c1nc2ccccc2[nH]1 (centres unmarked) [lansoprazole]
- PARP1 expression [3]: dose-dependently reduced
- Homologous recombination activity [4]: did not change
- Sensitization to IR treatment [5]: sensitized
- Apoptosis ([6]; MDA-MB-468): dose-dependently induced apoptosis
- Cell cycle arrest phase ([6]; MDA-MB-468, dose-dependent): S phase
- NHEJ activity ([7]; MCF7, 10 µM twice a day for three days): significantly reduced
- NHEJ activity with ectopic FASN over-expression ([7]; MCF7 cells over-expressing ectopic FASN): rescued NHEJ activity
- γ-H2AX level ([8]; MDA-MB-468, lansoprazole alone): increased γ-H2AX level in a dose-dependent manner
- γ-H2AX level at 4 hrs post-IR versus 1 hr ([8]; MDA-MB-468, lansoprazole pre-treatment, 5 Gy IR): no reduction
- Doxorubicin-induced γ-H2AX production ([8]; MDA-MB-468, lansoprazole with doxorubicin): synergistically increased
- Sensitization to IR treatment [9]: sensitized
- Combination index [10]: < 1.0
- Overall survival, univariate HR [2, 20]: 0.20
- Apoptosis [11]: dose-dependently induced apoptosis
- NHEJ activity [12]: significantly reduced
- Lansoprazole resistance (relative resistance factor) [13]: reduced
- Lansoprazole resistance (relative resistance factor) [14]: increased
- Combination index [15]: < 1.0
- γ-H2AX level ([16]; MCF7, lansoprazole alone): increased γ-H2AX level in a dose-dependent manner
- γ-H2AX level at 4 hrs post-IR versus 1 hr ([16]; MCF7, lansoprazole pre-treatment, 5 Gy IR): no reduction
- Doxorubicin-induced γ-H2AX production ([16]; MCF7, lansoprazole with doxorubicin): synergistically increased
- Lansoprazole-induced γ-H2AX increase with ectopic FASN over-expression ([16]; over-expressing ectopic FASN): ablated

Structure (SMILES): COc1ccnc(C[S+]([O-])c2nc3ccc(OC(F)F)cc3[nH]2)c1OC (centres unmarked) [pantoprazole]
- Overall survival, univariate HR [2, 20]: 0.43

Structure (SMILES): Cc1c(OCC(F)(F)F)ccnc1C[S@@+]([O-])c1nc2ccccc2[nH]1 [R-lansoprazole, dexlansoprazole]
- Inhibition of TE activity of FASN (Ki), enantiomer comparison [17]: significantly more effective than the S-lansoprazole

Structure (SMILES): CC12C[C@@]34C=CC(=O)[C@@](C)(CCC(=O)Nc5c(O)ccc(C(=O)O)c5O)C3[C@H](CC1C4)O2 (some centres unmarked) [platensimycin]
- Insulin sensitivity ([18]; db/+ mice fed with high-fructose diet): improved insulin sensitivity
- Ambient glucose levels ([18]; db/db mice): reduced ambient glucose levels
